Laboratory results as given in PMC8765437, “GSK3640254 Is a Novel HIV-1 Maturation Inhibitor with an Optimized Virology Profile” (Antimicrobial Agents and Chemotherapy, 2022).
Like-named read-outs stand apart in the source and are kept apart here.

System: NLRepRlucP373S viruses containing Gag SDMs or gag/pr genes from clinical isolates
Test: Multiple-cycle replication assay, NLRepRluc reporter viruses in MT-2 cells, luciferase endpoint
Type: cell-based, HIV-1
Text: Multiple-cycle assays using recombinant viruses or clinical isolates were used to assess MI antiviral activity as described previously ([10]). pNLRepRlucP373S (the P373S change is in the Gag gene and converts an outlier polymorphism in the NL4-3 gene to the prevalent amino acid in the population) plasmids containing SDMs in Gag or gag/pr regions from clinical isolates were transfected into HEK 293T cells, and the supernatant containing recombinant virus was harvested after 4 to 5 days. Virus was used to infect MT-2 cells in the presence of a 3-fold serially diluted compound at a final dimethyl sulfoxide (DMSO) concentration of 1%. The inocula of the reporter viruses were determined based on the luciferase activity detected on day 4 postinfection. The MOI (ratio of infectious virions to target cells) of reporter-free laboratory strains and clinical isolates was 0.005, as derived from a tissue culture infectious dose study. Clinical isolates or reporter-free viruses were examined in the reporter CEM-NKR-CCR5-Luc cells or PBMCs at MOIs ranging from 0.005 to 0.01. Each infection started with a drug-free preincubation of the cell-virus mixtures, performed at 37°C and 5% CO2 for either 1 h at 2 times the final cell density (reporter viruses) or 1 h (reporter-free laboratory strains) or 3 h (clinical isolates) using cell pellets in 0.5 mL of medium. After preincubation, cell-virus mixtures were added to compound-containing 96-well plates for a final cell density of either 10,000 (MT-2 cells for reporter viruses), 20,000 (MT-2 and PM1 cells for reporter-free laboratory strains), 200,000 (PBMCs for clinical isolates), or 500,000 (CEM-NKR-CCR5-Luc for reporter-free laboratory strains) cells per well. The CEM-NKR-CCR5-Luc cell assay was performed in the presence of Polybrene (10 μg/mL). Virus growth was determined on days 4 to 5 postinfection for reporter variants or days 5 to 11 for the other viruses. The reporter viruses were detected by a luciferase assay according to manufacturer protocols (Brite-Glo luciferase kit [Promega] for CEM-NKR-CCR5-Luc cells and Dual-Luciferase Reporter 1000 assay system [Promega] for the other cells), and luminescence was detected on a Wallac Trilux. The growth of clinical isolates in PBMCs was quantitated by reverse transcriptase activity in a 96-well scintillation proximity assay (SPA). Twenty microliters of culture supernatants was mixed with 40 μL of reaction cocktail (62.5 mM Tris-HCl [pH 7.8], 100 mM KCl, 0.0625% NP-40, 2.5 mM dithiothreitol [DTT], 6.25 mM MgCl2, 1 mM EGTA, 6.25 μg/mL of poly rA, 2.5 μg/mL of streptavidin SPA beads prebound with biotinylated-dT12-18, and 1 μCi of [^3H]TTP). Mixtures were incubated at 37°C for ∼3 h and quenched with 100 μl of 0.25 M EDTA per well. Luminescence was detected on a Wallac Trilux programmed for tritium counting with SPA beads in opaque plates. The growth of the reporter-free laboratory M-tropic strains and clinical isolates was monitored by a p24 enzyme-linked immunosorbent assay (ELISA; PerkinElmer Life Sciences, Waltham, MA) performed on culture supernatants. […] A 1:1,000 dilution of cell supernatant in PBS was generally observed to fall in the dynamic range of the endpoint signal.
Maximal percent inhibition values were calculated as MPI = 100 – (mean signals at the 2 highest concentrations of compound/mean signal of 2 no-drug control wells) × 100.

SMILES: C=C(C)[C@@H]1CC[C@]2(NCCN3CCS(=O)(=O)CC3)CC[C@]3(C)[C@H](CC[C@@H]4[C@@]5(C)CC=C(c6ccc(C(=O)O)cc6)C(C)(C)[C@@H]5CC[C@]43C)[C@@H]12 [GSK’795, reference compound]
- EC90 (Human immunodeficiency virus 1, MT2, read-out: PBA EC90, subtype B gag/pr 1000156 (V362I)): 600 nM
- EC90 (Human immunodeficiency virus 1, MT2, read-out: PBA EC90, subtype B gag/pr 1900120 (V370M)): 6000 nM
- EC90 (Human immunodeficiency virus 1, MT2, read-out: PBA EC90, subtype B gag/pr 1900140 (V362I)): 1930 nM
- EC90 (Human immunodeficiency virus 1, MT2, read-out: PBA EC90, subtype C gag/pr 93MW690): 1370 nM
- EC90 (Human immunodeficiency virus 1, MT2, read-out: PBA EC90, subtype C gag/pr 97ZA003): 2400 nM
- EC90 (Human immunodeficiency virus 1, MT2, read-out: PBA EC90, subtype C gag/pr 98CN009): 1870 nM
- EC90 (Human immunodeficiency virus 1, MT2, read-out: PBA EC90, subtype C gag/pr 98IN026): 70 nM
- EC90 (Human immunodeficiency virus 1, MT2, read-out: PBA EC90, subtype C gag/pr 10215-6): 12000 nM
- EC90 (Human immunodeficiency virus 1, MT2, read-out: PBA EC90, subtype C gag/pr 11657-3): 400 nM
- EC90 (Human immunodeficiency virus 1, MT2, read-out: PBA EC90, subtype C gag/pr 20635-4): 1700 nM
- EC90 (Human immunodeficiency virus 1, MT2, read-out: PBA EC90, subtype C gag/pr 20706-3): 370 nM
- EC90 (Human immunodeficiency virus 1, MT2, read-out: PBA EC90, subtype C gag/pr 1300495): 2270 nM
- EC90 (Human immunodeficiency virus 1, MT2, read-out: PBA EC90, subtype C gag/pr 1700141): 370 nM
- EC90 (Human immunodeficiency virus 1, MT2, read-out: PBA EC90, subtype C gag/pr 1900543): 280 nM
- EC90 (Human immunodeficiency virus 1, MT2, read-out: PBA EC90: Mean, minilibrary of HIV-1 polymorphisms, Fig. 1B, GSK’795 mean without 3 viruses lacking measurable EC90): 44800 nM
- EC50 (Human immunodeficiency virus 1, MT2, subtype B gag/pr 4NRR (Wild-type)): 1 nM
- EC50 (Human immunodeficiency virus 1, MT2, subtype B gag/pr 28-MDR (Wild-type)): 6 nM
- EC50 (Human immunodeficiency virus 1, MT2, subtype B gag/pr 92BR014 (V370M)): 4 nM
- EC50 (Human immunodeficiency virus 1, MT2, subtype B gag/pr 92BR018 (V, QAΔ)): 3 nM
- EC50 (Human immunodeficiency virus 1, MT2, subtype B gag/pr 92TH014 (V362I)): 5 nM
- EC50 (Human immunodeficiency virus 1, MT2, subtype B gag/pr 92TH026 (V362I)): 10 nM
- EC50 (Human immunodeficiency virus 1, MT2, subtype B gag/pr 92US072 (V362I)): 3 nM
- EC50 (Human immunodeficiency virus 1, MT2, subtype B gag/pr 92US729 (Wild-type)): 1 nM
- EC50 (Human immunodeficiency virus 1, MT2, subtype B gag/pr 93BR008 (V362I)): 4 nM
- EC50 (Human immunodeficiency virus 1, MT2, subtype B gag/pr 93BR009 (V370M)): 2 nM
- EC50 (Human immunodeficiency virus 1, MT2, subtype B gag/pr 93BR017 (V, QAΔ)): 16 nM
- EC50 (Human immunodeficiency virus 1, MT2, subtype B gag/pr 93BR022 (V, QAΔ)): 10 nM
- EC50 (Human immunodeficiency virus 1, MT2, subtype B gag/pr 93BR024 (V362I)): 54 nM
- EC50 (Human immunodeficiency virus 1, MT2, subtype B gag/pr 93TH0647 (V362I)): 3 nM
- EC50 (Human immunodeficiency virus 1, MT2, subtype B gag/pr 93US141 (V362I)): 9 nM
- EC50 (Human immunodeficiency virus 1, MT2, subtype B gag/pr 93US155 (V370T)): 5 nM
- EC50 (Human immunodeficiency virus 1, MT2, subtype B gag/pr 411-1-C (Wild-type)): 1 nM
- EC50 (Human immunodeficiency virus 1, MT2, subtype B gag/pr 220162 (Wild-type)): 5 nM
- EC50 (Human immunodeficiency virus 1, MT2, subtype B gag/pr 400024 (V370M)): 19 nM
- EC50 (Human immunodeficiency virus 1, MT2, subtype B gag/pr 400051 (V370A)): 2 nM
- EC50 (Human immunodeficiency virus 1, MT2, subtype B gag/pr 1000156 (V362I)): 9 nM
- EC50 (Human immunodeficiency virus 1, MT2, subtype B gag/pr 1900120 (V370M)): 8 nM
- EC50 (Human immunodeficiency virus 1, MT2, subtype B gag/pr 1900140 (V362I)): 3 nM
- EC50 (Human immunodeficiency virus 1, MT2, subtype C gag/pr 93MW690): 10 nM
- EC50 (Human immunodeficiency virus 1, MT2, subtype C gag/pr 97ZA003): 6 nM
- EC50 (Human immunodeficiency virus 1, MT2, subtype C gag/pr 98CN009): 11 nM
- EC50 (Human immunodeficiency virus 1, MT2, subtype C gag/pr 98IN026): 3 nM
- EC50 (Human immunodeficiency virus 1, MT2, subtype C gag/pr 10215-6): 7 nM
- EC50 (Human immunodeficiency virus 1, MT2, subtype C gag/pr 11657-3): 6 nM
- EC50 (Human immunodeficiency virus 1, MT2, subtype C gag/pr 20706-3): 4 nM
- EC50 (Human immunodeficiency virus 1, MT2, subtype C gag/pr 1300495): 22 nM
- EC50 (Human immunodeficiency virus 1, MT2, subtype C gag/pr 1700141): 8 nM
- EC50 (Human immunodeficiency virus 1, MT2, subtype C gag/pr 1900543): 7 nM
- MPI (SDM A326T/V362I/V370A): 6%
- MPI (SDM A364V): 16%
- MPI (SDM R361K/V362I/L363M): 68%
- MPI (SDM T332S/V362I/prR41G): 65%
- MPI (SDM V362I/V370A): 31%
- MPI (SDM V370A): 84%
- MPI (SDM Wild type): 94%
- MPI (SDM ΔV370): 87%
- EC50 (read-out: EC50 (range), Subtype B gag/pr viruses, n=24): 1 to 1400 nM
